# *1 amine or outer side, *2 acyl side, *3 side chain or, on linkers, in order; H or OH if unused. Where a SMILES comes first, the peptide text is derived from it. Bridges are numbered along the chain shown (N, C = ends). [ ]: non-standard residue; d: D form. The star is where a group is joined. Orn(4R-OH,5R-OCH2CH2NMe3+) = C[N+](C)(C)CCO[C@@H](N[*:3])[C@H](O)C[C@H](N[*:1])C(=O)[*:2]; pTerphenylCO(4''-OnC5H11) = CCCCCOc1ccc(-c2ccc(-c3ccc(C(=O)*)cc3)cc2)cc1; hTyr(3S-OH,4S-OH) = N[C@H](C(=O)O)[C@H](O)[C@@H](O)c1ccc(O)cc1; Pro(3S-OH,4S-Me) = C[C@H]1CN[C@H](C(=O)O)[C@H]1O; Hyp = O=C(O)[C@@H]1C[C@@H](O)CN1
# Legend:
# [1] = Population pharmacokinetic model of rezafungin (three-compartment, NONMEM) from plasma concentrations of Phase 1, 2 and 3 studies; format: in vivo, human
# Description: Data from single- and multiple-dose studies in healthy volunteers and patients, with doses ranging from 50 to 1,400 mg, were included in the PK analysis. All doses of rezafungin were administered via IV infusion. The PK data set consisted of a total of 2,512 rezafungin concentration records from 277 subjects, of which five records were identified as below the lower limit of quantitation postdose and five other records were identified as above 50 µg/mL, which was the upper limit of quantitation. Those records together represent less than 0.5% of the observed concentrations and were excluded from the analysis.
# Starting from the previously developed four-compartment PK model ([13]), structurally simpler two- and three-compartment models with IIV in various parameters were developed and compared. During the initial modeling exercise, eight additional records were identified as outliers using conditional weighted residuals greater than 5 or smaller than −5 as a criterion and were excluded from model development. […] The two other compartments were considered peripheral distribution compartments (V2 and V3). When IIVs in V2 and V3 were included in the model, it was recognized that the individual IIVs on V2 and V3 were highly correlated, and, in addition, the typical estimates of V2 and V3 were very similar. Therefore, a model with a shared IIV term and with a single shared parameter for V2 and V3 [peripheral volume (V23)] was tested. […] The estimation of a four-compartment model achieved a moderate improvement in the value of the objective function (VOF) (a decrease of 49 points). However, there was no discernible improvement in the goodness-of-fit model diagnostics, and the residual error was nearly identical. Therefore, the three-compartment structural model was considered to adequately describe the PK of rezafungin without overparameterization. The inclusion of IIV terms was tested on various PK parameters, including clearance (CL), central volume of distribution (V1), V23, intercompartmental clearance 1 (Q2), and intercompartmental clearance 2 (Q3). Interindividual variability terms on CL, V1, and V23 were sufficient to achieve good individual predictions. For the residual variability (RV), the constant coefficient of variation (CCV) and combined additive and proportional error models were tested.
# The final PK model of rezafungin is a three-compartment model with first-order elimination, characterized by the parameters CL, V1, V23, Q2, and Q3. The variability model included IIV in V1, V23, and CL, their covariances, and a proportional RV model (Table 2). All fixed and random effect parameters, including those of the covariance terms, were estimated with reasonable precision (<39%RSE). The magnitudes of the IIV parameters were moderate for all parameters: 30.5 coefficient of variation expressed as a percent (%CV) for CL, 37.6%CV for V1, and 29.3%CV for V23. Eta shrinkage was low for all parameters (<11%), and the residual error was also low (9.74%CV).
# Data were obtained from five Phase 1 studies (CD101.IV.1.01, CD101.IV.1.02, CD101.IV.1.06, CD101.IV.1.07, and CD101.IV.1.15), a Phase 2 study (CD101.IV.2.03; STRIVE), and a Phase 3 study (CD101.IV.3.05; ReSTORE) (Table S1). All study participants met the inclusion and exclusion criteria for the study in which they were enrolled. All clinical studies were conducted in compliance with International Council for Harmonisation guidelines on Good Clinical Practice.
# Dosing regimens for rezafungin are described in Table S1. Data from both single- and multiple-dose studies, with doses ranging from 50 to 1,400 mg, were included in this analysis. All doses of rezafungin were administered via IV infusion.
# Dense PK samples were collected in the Phase 1 studies, and a mixture of dense and sparse PK samples were collected in the Phase 2 and Phase 3 studies. […]
# [2] = Simulated exposure measures after a single 400 mg dose from individual Bayesian PK estimates, with forest plots of covariate effects; format: in vivo, human; details: for Half-life: from simulated concentrations during week 2 after the last dose; for Clearance: individual model-based estimates (CL); for AUC0–168h / Cmax / Cmin, 168h: single 400 mg IV dose, simulated; for Total volume of distribution at steady state: sum of individual model-based central and peripheral volumes
# Description: To illustrate the relative differences in the impact of the covariates included in the final model on the exposure of rezafungin, forest plots were constructed using simulated exposure for the subjects in the analysis data set, following a single dose of 400 mg. […] Though statistically significant and included in the final model, the GMR rezafungin exposure and 90% CI of each covariate effect were not far outside of the default no effect bounds of 0.8 and 1.25.
# Age was not determined to be a significant covariate of rezafungin exposure. Sixty-three patients were aged 65 years or older, with the oldest patient being […]. Thirty-eight patients were aged 65 to <75, and 25 patients were aged 75 to 89 years old. The GMR (90% CI) of AUC0–168h of these two age groups were 0.95 (0.85, 1.05) and 1.20 (1.06, 1.36), respectively, compared to patients 24 to <65 years old (n = 104). The change in exposure in patients 65 years or older is not deemed clinically meaningful.
# The final PK model of rezafungin, the individual empirical Bayesian PK parameter estimates, and the individual dosing histories were used to simulate dense PK profiles for each subject using the R package mrgsolve ([33]).
# [3] = final population PK model, population mean
# [4] = final population PK model, population mean, covariate effect
# [5] = healthy subjects, n = 94, geometric mean (geometric %CV)
# [6] = healthy subjects, n = 94, mean (SD), SD
# [7] = hepatic impairment, uninfected, n = 16, geometric mean (geometric %CV)
# [8] = hepatic impairment, uninfected, n = 16, mean (SD), SD
# [9] = patients, n = 167, geometric mean (geometric %CV)
# [10] = patients, n = 167, mean (SD), SD
compound,measurement,setting,value
"CCCCCOc1ccc(-c2ccc(-c3ccc(C(=O)N[C@H]4C[C@@H](O)[C@@H](OCC[N+](C)(C)C)NC(=O)[C@@H]5[C@@H](O)[C@@H](C)CN5C(=O)[C@H]([C@@H](C)O)NC(=O)[C@H]([C@H](O)[C@@H](O)c5ccc(O)cc5)NC(=O)[C@@H]5C[C@@H](O)CN5C(=O)[C@H]([C@@H](C)O)NC4=O)cc3)cc2)cc1 [rezafungin] ({pTerphenylCO(4''-OnC5H11)}-[Orn(4R-OH,5R-OCH2CH2NMe3+)]T[Hyp][hTyr(3S-OH,4S-OH)]T[Pro(3S-OH,4S-Me)]; lactam 1-C)",CL,"[1]; BSA 1.3 m^2, based on the final model estimates",0.235 L/h
same,CL,"[1]; BSA 2.6 m^2, based on the final model estimates",0.433 L/h
same,lower CL in healthy subjects than infected subjects or those with hepatic impairment,[1]; final model estimates,27.6%
same,"Q2, Distribution clearance 1",[1]; [3],0.236 L/h
same,"Q3, Distribution clearance 2",[1]; [3],12.4 L/h
same,"V23, Peripheral volume 1 and 2","[1]; final population PK model, population mean, BSA 1.9 m^2, ALB 3.2 g/dL",19.1 L
same,"CL, Central clearance","[1]; final population PK model, population mean, IV infusion, 277 subjects, typical value for disease state, BSA 1.9 m^2",0.328 L/h
same,Exponent of (BSA/1.9) for V1,[1]; [4],1.56
same,Exponent of (BSA/1.9) for V23,[1]; [4],1.17
same,"V1, Central volume","[1]; final population PK model, population mean, typical value for disease state, BSA 1.9 m^2",17.7 L
same,Half-life,[2]; [5],143.368 (9.737) h
same,Half-life,[2]; [6],144.039 (14.027) h
same,Half-life,[2]; [7],132.827 (9.457) h
same,Half-life,[2]; [8],133.372 (12.249) h
same,Half-life,[2]; [9],149.458 (18.095) h
same,Half-life,[2]; [10],151.960 (29.086) h
same,Clearance,[2]; [5],0.229 (20.266) L/h
same,Clearance,[2]; [6],0.234 (0.048) L/h
same,Clearance,[2]; [7],0.336 (21.829) L/h
same,Clearance,[2]; [8],0.343 (0.077) L/h
same,Clearance,[2]; [9],0.328 (38.396) L/h
same,Clearance,[2]; [10],0.350 (0.130) L/h
same,AUC0–168h,[2]; [5],"1,070.513 (20.149) μg × h/mL"
same,Cmax,[2]; [5],21.725 (22.466) μg/mL
same,"Cmin, 168h",[2]; [5],3.247 (22.858) μg/mL
same,AUC0–168h,[2]; [6],"1,091.512 (215.164) μg × h/mL"
same,Cmax,[2]; [6],22.244 (4.789) μg/mL
same,"Cmin, 168h",[2]; [6],3.329 (0.741) μg/mL
same,AUC0–168h,[2]; [7],778.250 (19.012) μg × h/mL
same,Cmax,[2]; [7],17.061 (16.797) μg/mL
same,"Cmin, 168h",[2]; [7],2.113 (25.916) μg/mL
same,AUC0–168h,[2]; [8],791.452 (152.248) μg × h/mL
same,Cmax,[2]; [8],17.291 (3.017) μg/mL
same,"Cmin, 168h",[2]; [8],2.176 (0.533) μg/mL
same,AUC0–168h,[2]; [9],752.507 (35.100) μg × h/mL
same,Cmax,[2]; [9],17.715 (35.418) μg/mL
same,"Cmin, 168h",[2]; [9],2.097 (43.351) μg/mL
same,AUC0–168h,[2]; [10],798.607 (295.120) μg × h/mL
same,Cmax,[2]; [10],18.761 (6.448) μg/mL
same,"Cmin, 168h",[2]; [10],2.292 (1.072) μg/mL
same,"Fold change in AUC0-168h relative to reference, GMR (90% CI)","[2]; single 400 mg dose, Phase 2/3 patients, BMI obese (≥30 kg/m^2), n = 36, vs optimum BMI","0.77 (0.69, 0.86)"
same,"Fold change in AUC0-168h relative to reference, GMR (90% CI)","[2]; single 400 mg dose, Phase 2/3 patients, BMI overweight (25 to <30 kg/m^2), n = 40, vs optimum BMI","0.84 (0.75, 0.94)"
same,"Fold change in AUC0-168h relative to reference, GMR (90% CI)","[2]; single 400 mg dose, Phase 2/3 patients, BMI underweight (<18.5 kg/m^2), n = 17, vs optimum BMI","1.03 (0.88, 1.20)"
same,"Fold change in AUC0-168h relative to reference, GMR (90% CI)","[2]; single 400 mg dose, Phase 2/3 patients, age (y) [65,75), n = 38, vs 24 to <65 years","0.95 (0.85, 1.05)"
same,"Fold change in AUC0-168h relative to reference, GMR (90% CI)","[2]; single 400 mg dose, Phase 2/3 patients, age (y) [75,89], n = 25, vs 24 to <65 years","1.20 (1.06, 1.36)"
same,higher AUC0–168h in female subjects,"[2]; single 400 mg dose, Phase 2/3 patients, female vs male",21%
same,"Fold change in AUC0-168h relative to reference, GMR (90% CI)","[2]; single 400 mg dose, Phase 2/3 patients, kidney failure (CrCL <15 mL/min) vs normal renal function","1.16 (0.96, 1.39)"
same,"Fold change in AUC0-168h relative to reference, GMR (90% CI)","[2]; single 400 mg dose, Phase 2/3 patients, mild renal impairment (CrCL 60 to 89 mL/min) vs normal renal function","0.95 (0.85, 1.06)"
same,"Fold change in AUC0-168h relative to reference, GMR (90% CI)","[2]; single 400 mg dose, Phase 2/3 patients, moderate renal impairment (CrCL 30 to 59 mL/min) vs normal renal function","1.23 (1.11, 1.36)"
same,"Fold change in AUC0-168h relative to reference, GMR (90% CI)","[2]; single 400 mg dose, Phase 2/3 patients, severe renal impairment (CrCL 15 to 29 mL/min) vs normal renal function","1.01 (0.88, 1.16)"
same,Total volume of distribution at steady state,[2]; [5],42.312 (22.744) L
same,Total volume of distribution at steady state,[2]; [6],43.410 (10.265) L
same,Total volume of distribution at steady state,[2]; [7],56.279 (19.744) L
same,Total volume of distribution at steady state,[2]; [8],57.264 (10.702) L
same,Total volume of distribution at steady state,[2]; [9],62.434 (40.964) L
same,Total volume of distribution at steady state,[2]; [10],67.451 (27.744) L
